Laboratory results: patent US20110039762A1, “TARGETED ANTIMICROBIAL MOIETIES” (C3 JIAN, INC., priority 2009, published 2011)
Entries after “also recorded” stand apart in the source; their conditions may differ.

Test system: microorganisms (e.g., bacteria, yeasts, fungi)
Assay: Targeting peptide binding to target microorganisms (Table 3)
Conditions: microorganism the targeting peptide binds; binding in aqueous buffers varied by peptide solubility, preferably 1x PBS

“1T-252 (MKKNLKRFYALVLGFIIGCLFVSILIFIGY; Peptide with targeting and/or antimicrobial activity) [Peptide 1T-252]” was tested. Which “Target(s)” value did it give?
Its value is “F. nucleatum; also recorded: S. sanguinis”.

Which “Target(s)” value does the source give for “1T-10 (SPAGLPGDGDEA; Peptide with targeting and/or antimicrobial activity) [Peptide 1T-10]” here?
The value was “M. xanthus”.

“1T-258 (TINIDDKVLDYLKKINSKAITIDLIGCAS; Peptide with targeting and/or antimicrobial activity) [Peptide 1T-258]” was tested. Which “Target(s)” value did it give?
The value was “A. naeslundii; also recorded: F. nucleatum; also recorded: P. gingivalis; also recorded: T. denticola; also recorded: S. mitis; also recorded: S. mutans; also recorded: S. oralis”.

With “1T-65 (HARAAVGVAELPRGAAVEVELIAAVRP; Peptide with targeting and/or antimicrobial activity) [Peptide 1T-65]” as the substance, how does the “Target(s)” value read?
The value was “S. mutans; also recorded: S. aureus; also recorded: S. epidermidis; also recorded: C. jeikeium; also recorded: C. xerosis; also recorded: C. striatum; also recorded: P. aeruginosa”.

With “1T-52 (DEYPAKLPLSDKGATEPRRH; Peptide with targeting and/or antimicrobial activity) [Peptide 1T-52]” as the substance, how does the “Target(s)” value read?
The value was “S. aureus; also recorded: C. xerosis; also recorded: P. aeruginosa”.

With “1T-81 (AIATGLDIVDGKFDGYLWA; Peptide with targeting and/or antimicrobial activity) [Peptide 1T-81]” as the substance, how does the “Target(s)” value read?
The value was “S. pneumoniae”.

With “1T-261 (SFEKNKIENNLKIAQAYIYIKPKPRICQA; Peptide with targeting and/or antimicrobial activity) [Peptide 1T-261]” as the substance, how does the “Target(s)” value read?
The value was “F. nucleatum; also recorded: S. mutans; also recorded: S. oralis; also recorded: S. sanguinis”.

How did the “Target(s)” value turn out when “1T-37 (YIVGALVILAVAGLIYSMLRKA; Peptide with targeting and/or antimicrobial activity) [Peptide 1T-37]” was run?
Its value is “S. mutans; also recorded: S. aereus; also recorded: S. epidermidis; also recorded: C. jeikeium; also recorded: C. xerosis; also recorded: C. striatum; also recorded: P. aeruginosa”.

With “1T-113 (HGAHQRTGQRLHHHRGRTVSGCRQNPVAGVDPDEHR; Peptide with targeting and/or antimicrobial activity) [Peptide 1T-113]” as the substance, how does the “Target(s)” value read?
Its value is “S. mitis”.

Which “Target(s)” value does the source give for “PF-S024 (SKRGRKRKDRRKKKANHGKRPNS; Peptide with targeting and/or antimicrobial activity)” here?
Its value is “Corynebacteria”.

“TT-305 (ARNALNMRDVPVDAAIIGIIDGMDEE; Peptide with targeting and/or antimicrobial activity)” was tested. Which “Target(s)” value did it give?
Its value is “F. nucleatum”.

With “1T-86 (HRKNPVLGVGRRHRAHNVA; Peptide with targeting and/or antimicrobial activity) [Peptide 1T-86]” as the substance, how does the “Target(s)” value read?
The value was “S. mitis; also recorded: S. oralis; also recorded: S. salivarious”.

“PF-038 (MAYKDEGKETKFAVKGYKD; Peptide with targeting and/or antimicrobial activity)” was tested. Which “Target(s)” value did it give?
Its value is “M. luteus”.

With “1T-192 (ILVLLALQVELDSKFQY; Peptide with targeting and/or antimicrobial activity) [Peptide 1T-192]” as the substance, how does the “Target(s)” value read?
Its value is “S. sanguinis”.

How did the “Target(s)” value turn out when “TT-310 (TKLKKNNKLLSAKKENTLHTKDK; Peptide with targeting and/or antimicrobial activity)” was run?
The value was “F. nucleatum”.

Same assay, conditions: microorganism(s) the targeting peptide binds; binding in aqueous buffers depending on peptide solubility, preferably 1x PBS

With “PF-333 (YMTKKLVEMAEQQMAGKSNR; Peptide with targeting and/or antimicrobial activity)” as the substance, how does the “Target(s)” value read?
Its value is “S. mutans”.

Which “Target(s)” value does the source give for “PF-195 (EMAEGSADDRLRKTPRDC; Peptide with targeting and/or antimicrobial activity)” here?
Its value is “S. epidermidis; also recorded: M. luteus; also recorded: E. faecalis; also recorded: C. jeikeium”.

How did the “Target(s)” value turn out when “PF-214 (GHLRVCWVFSASLLTPFRSATLI; Peptide with targeting and/or antimicrobial activity)” was run?
The value was “S. mutans; also recorded: S. epidermidis; also recorded: M. luteus; also recorded: E. coli; also recorded: P. aeruginosa; also recorded: A. baumannii”.

“PF-228 (NQLGSQAFAQL; Peptide with targeting and/or antimicrobial activity)” was tested. Which “Target(s)” value did it give?
The value was “S. mutans”.

With “PF-266 (DQEKKNKTEESTEQ; Peptide with targeting and/or antimicrobial activity)” as the substance, how does the “Target(s)” value read?
The value was “S. mutans”.

How did the “Target(s)” value turn out when “PF-141 (VVRRFQGM; Peptide with targeting and/or antimicrobial activity)” was run?
Its value is “S. epidermidis and M. luteus and C. albicans and MRSA and C. jeikeium”.

“PF-142 (GIDRGCQAAR; Peptide with targeting and/or antimicrobial activity)” was tested. Which “Target(s)” value did it give?
The value was “S. mutans”.

How did the “Target(s)” value turn out when “PF-187 (EIQKIAKGVSGQVYGPSRQITISKKR; Peptide with targeting and/or antimicrobial activity)” was run?
Its value is “S. epidermidis and M. luteus and E. coli and MRSA”.

How did the “Target(s)” value turn out when “PF-254 (FIYGVGFVPHFWLWKWLFSPWIAWPLMLLGYYIWFLT; Peptide with targeting and/or antimicrobial activity)” was run?
Its value is “S. epidermidis; also recorded: M. luteus; also recorded: P. aeruginosa; also recorded: A. baumannii”.

With “PF-200 (GIELKSLIMAQIERWRQA; Peptide with targeting and/or antimicrobial activity)” as the substance, how does the “Target(s)” value read?
The value was “S. epidermidis and M. luteus and MRSA and E. faecalis and C. jeikeium”.

Same assay, conditions: microorganism(s) the targeting peptide binds; peptide binding conducted in aqueous buffers varied by peptide solubility, preferably 1x PBS

Which “Target(s)” value does the source give for “PF-436 (KKHVLVGKQEKNG; Peptide with targeting and/or antimicrobial activity)” here?
Its value is “C. jeikeium”.

How did the “Target(s)” value turn out when “PF-502 (NKGKQMQDQTGKQPIVDNG; Peptide with targeting and/or antimicrobial activity)” was run?
Its value is “S. mutans”.

How did the “Target(s)” value turn out when “PF-402 (FIDVLKSKINEFLN; Peptide with targeting and/or antimicrobial activity)” was run?
Its value is “S. epidermidis; also recorded: P. aeruginosa; also recorded: E. faecalis; also recorded: C. jejuni”.

For “PF-507 (LALSIANLFKKKA; Peptide with targeting and/or antimicrobial activity)”, which “Target(s)” value is on record?
The value was “S. mutans; also recorded: E. coli”.

Same assay, conditions: peptide binding in aqueous buffers varied by peptide solubility; preferably 1x PBS

With “PF-650 (IRSDQPGRQSRSSPRWPTGAGRHR; Peptide with targeting and/or antimicrobial activity)” as the substance, how does the “Target(s) (microorganisms bound by the targeting peptide)” value read?
The value was “Mycobacteria spp”.

“PF-733 (VISRQMGSEAVLELFIIM; Peptide with targeting and/or antimicrobial activity)” was tested. Which “Target(s) (microorganisms bound by the targeting peptide)” value did it give?
The value was “S. mutans; also recorded: E. coli”.

“PF-751 (AESSPAQETT; Peptide with targeting and/or antimicrobial activity)” was tested. Which “Target(s) (microorganisms bound by the targeting peptide)” value did it give?
Its value is “S. epidermidis; also recorded: E. coli; also recorded: C. albicans; also recorded: C. jeikeium”.

For “PF-782 (TGPRRGIDLTSNRALSEVLDEGLELNSRK; Peptide with targeting and/or antimicrobial activity)”, which “Target(s) (microorganisms bound by the targeting peptide)” value is on record?
The value was “Mycobacteria spp”.
